# Assay results taken from US20230257374A1, “NOVEL KRAS G12C PROTEIN INHIBITOR, PREPARATION METHOD THEREFOR, AND USE THEREOF” (INNOVENT BIOLOGICS (SUZHOU) CO., LTD., priority 2019, published 2023).
# Like-named read-outs stand apart in the source and are kept apart here.
# Assays:
# [1] = test system: NCI-H358 tumor (K-RAS G12C mutation); format: in vivo, BALB/c nude mice; conditions: for Tumor regression: animals with regression / group of 8
# Experimental: The cells were digested with trypsin-EDTA twice a week for passaging as per conventional practice. When the cell saturation reached 80%-90% and a required amount was achieved, the cells were collected and counted for later use. […] 5% DMSO/5% Solutol/90% water was used as a blank control. 3) Tumor inoculation and drug administration: BALB/c nude mice, female, 6-8 weeks old, weighing 18-20 g. The experiment started after 3-7 days of adaptive feeding. 0.1 mL of NCI-H358 cells (5×10^6 cells) were inoculated subcutaneously on the right back of each mouse. The mice were grouped for administration when the average tumor volume reached approximately 150 mm^3. The animals were weighed before administration and the tumor volume was measured. Grouping was randomly performed according to the tumor volume.
# Animals were monitored daily for health and death, and routine examinations include observation of the effect of tumor growth and drug treatment on the daily performance of the animals, such as behavioral activities, food and water intake, weight changes (measured once every other day), appearance, or other abnormal conditions. Animal mortality and side effects within each group were recorded based on the number of animals in the group.
# Tumor diameters were measured 2-3 times weekly using a vernier caliper.
# The tumor volume was calculated as follows: […]
# where a and b represent the long and short diameters of the tumor, respectively.
# The anti-tumor therapeutic effect of the compound was evaluated by tumor growth inhibition rate TGI (%) or relative tumor proliferation rate T/C (%).
# TGI (%) was calculated as follows: […]
# T/C (%) was calculated as follows: […]
# where TRTV represents the relative tumor volume of the treatment group; CRTV represents the relative tumor volume of the solvent control group.
# Based on the results of tumor measurement, the relative tumor volume (RTV) was calculated as follows: […]
# where V0 represents the average tumor volume measured at the time of grouping and administration (i.e., d0), Vt represents the average tumor volume in a certain measurement, and TRTV and CRTV take the data on the same day.
# After the completion of the experiment, tumors were weighed, and the percentage of Tweight/Cweight was calculated, where Tweight and Cweight represent the tumor weights of the treatment group and the solvent control group, respectively.
# Data calculation and analysis: T test was employed for comparison between two groups. One-way ANOVA was employed for comparison between three or more groups. If there is a significant difference in F-values, multiple comparisons should be made after ANOVA analysis. All data analyses were performed with SPSS 17.0. p<0.05 was defined as a significant difference.
# KRAS G12C protein = biological target: T1, KRAS G12C protein (Homo sapiens, UniProt P01116, G12C); experiment: ERK protein phosphorylation assay (p-ERK) in H358 cells; format: cell-based; design: scale not given here; conditions: H358 cells expressing KRAS G12C protein, 3 h incubation with compound; read-out: IC50, inhibiting phosphorylation of KRAS G12C protein-mediated downstream signaling (p-ERK)
# T1 construct: H358 cells (ATCC, CRL-5807) expressing KRAS G12C protein; host or cells: H358 (NCI-H358) cells
# T1 sequence (P01116 1-188 isoform P01116-2 G12C): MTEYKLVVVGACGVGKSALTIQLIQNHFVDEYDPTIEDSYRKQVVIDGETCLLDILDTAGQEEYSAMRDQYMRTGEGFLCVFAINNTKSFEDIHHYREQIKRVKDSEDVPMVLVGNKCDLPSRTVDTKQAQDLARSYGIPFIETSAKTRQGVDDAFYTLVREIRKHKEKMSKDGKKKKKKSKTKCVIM
# In short: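 After paraformaldehyde fixation and methanol permeabilization, phospho-ERK detected by immunofluorescence read on an Odyssey CLx imager.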
# [2] = test system: H358 cell line (K-RAS G12C); experiment: cells; format: cell-based, human
# Experimental: (§1) a) On day 1, seed cells were placed in T75 a flask. b) On day 3, the medium was taken out and washed once with DPBS. c) Cells were trypsinized with 2 mL TrypLE™ Express enzyme at room temperature (RT) or 37° C. until cells detached. d) 5 mL of fresh medium was added to suspend the cells, and then the suspension was centrifuged at 1000 rpm and room temperature for 5 min. e) The supernatant was discarded, and the cells were resuspended in 5 mL of fresh medium and counted using Countess™ H. f) The cells were seeded back into the T75 flask for further culture or placed into an assay plate for 3D cell proliferation assay.
# (§2) The cells were seeded at a density of 600 cells/well in a 384-well plate with 40 μL of medium per well and a final DMSO concentration of 0.5%. b) On day 4, a 3D CTG reagent was added to each well, followed by shaking at room temperature for 1 h. c) The signals were recorded using Envision.
# (§3) a) Robustness was examined using 0.5% DMSO and data of blank control medium: H=mean (DMSO); L=mean (medium); SD (H)=STDEV (DMSO); SD (L)=STDEV (medium);
# (§4) Y=peak valley value+(peak top value−peak valley value)/(1+10^((Log IC50−X)×HillSlope));
# (§5) X: logarithm of compound concentration; Y: percent inhibition (% inhibition); Peak top and peak valley values: the plateau period units are the same as Y; log IC50: the same logarithmic unit as X; HillSlope: slope coefficient or Hill slope.
# [3] = Stability test in human plasma
# Experimental: To examine the stability of the test compounds in plasma, representative compounds were selected for evaluation.
# Preparation of stock solution: a test compound was dissolved in DMSO to prepare a 1 mM stock solution for later use; Propantheline Bromide was dissolved in acetonitrile to prepare a 1 mM stock solution as a positive control for later use.
# To each well was added 2 μL of the stock solution of the test compound and the stock solution of the positive control such that the final concentrations were 5 KM and the concentration of the organic solvent was 0.5%. Each compound was prepared in duplicate, followed by incubation at 37° C. 50 μL of samples were taken from the reaction samples in equal amounts at 0, 30, 60, 120, 180 and 240 minutes, and 450 μL of cold acetonitrile containing an internal standard was added to terminate the reaction. […] 100 μL of the supernatants were transferred to a new plate, dilute with ultra-pure water, and analyzed by LC-MS/MS.
# Data results were calculated according to peak area ratios.
# The percentage of remaining compound for each time point was calculated as follows:
# Remaining percentagemin(%)=peak area ratiosmin/peak area ratiomin×100%
# where peak area ratios represents the peak area ratio of the test compound to the internal standard compound at t min; peak area ratiomin represents the peak area ratio of the test compound to the internal standard compound at 0 min (initial).
# [4] = test system: H1373 cell line (K-RAS G12C); experiment: cells; format: cell-based
# Experimental: as §1, §2, §3, §4, §5
# [5] = test system: PC-9 cell line (K-RAS wild type); experiment: cells; format: cell-based; conditions: Homo sapiens, PC-9, 96 h; 3D culture, CellTiter-Glo 3D, read on day 4
# Experimental: as §1, §2, §3, §4, §5
# [6] = test system: MIA PaCa-2 cell line (K-RAS G12C); experiment: cells; format: cell-based
# Experimental: as §1, §2, §3, §4, §5
smiles,measurement,setting,value
"[2H]C([2H])([2H])c1cccc2cccc(N3CCc4c(nc(OC[C@@H]5CCCN5C([2H])([2H])[2H])nc4N4CCN(C(=O)C=C)[C@@H](CC#N)C4)C3)c12 [Compound 17, 2-((S)-1-acryloyl-4-(7-(8-(methyl-d3)naphthalen-1-yl)-2-(((S)-1-(methyl-d3)pyrrolidin-2-yl)methoxy)-5,6,7,8-tetrahydropyrido[3,4-d]pyrimidin-4-yl)piperazin-2-yl)acetonitrile]",Day 0 Tumor volume (mm^3) Vaverage ± SEM,"[1]; Day 0 (at grouping, before administration), 15 mg/kg PO QD group",151 ± 10 mm^3
same,Day 21 Tumor volume (mm^3) Vaverage ± SEM,"[1]; Day 21, 15 mg/kg PO QD",90 ± 12 mm^3
same,Tumor inhibition rate TGI (%),"[1]; Day 21, 15 mg/kg PO QD",110.7%
same,Tumor regression,"[1]; Day 21, 15 mg/kg PO QD",8/8
same,Tumor regression,"[1]; Day 21, 15 mg/kg PO QD, listed as compound 17",the tumors in all of the animals regressed
same,Day 0 Body weight (g) Waverage ± SEM,"[1]; mouse, in vivo, po, 15 mg/kg",22.6 ± 0.7 g
same,IC50,KRAS G12C protein,< 1000 nM
same,IC50,"[2]; Homo sapiens, NCI-H358, 96 h, 3D culture, CellTiter-Glo 3D, read on day 4, read-out: H358 (K-RAS G12C) IC50",0.34 nM
same,Selectivity (fold number of mutant vs. wild type),[2]; PC-9 IC50 vs. H358 IC50,13794 fold
same,Remaining percentage (%) 0 min,"[3]; human plasma, 37° C., 0 min",100.00%
same,Remaining percentage (%) 30 min,"[3]; human plasma, 37° C., 30 min",97.00%
same,Remaining percentage (%) 60 min,"[3]; human plasma, 37° C., 60 min",92.97%
same,Remaining percentage (%) 120 min,"[3]; human plasma, 37° C., 120 min",78.91%
same,Remaining percentage (%) 180 min,"[3]; human plasma, 37° C., 180 min",59.98%
same,Remaining percentage (%) 240 min,"[3]; human plasma, 37° C., 240 min",47.82%
same,half-life at 5 μM,"[3]; human, plasma",3.63 h
same,IC50,"[4]; Homo sapiens, NCI-H1373, 96 h, 3D culture, CellTiter-Glo 3D, read on day 4, read-out: H1373 (K-RAS G12C) IC50",0.32 nM
same,Selectivity (fold number of mutant vs. wild type),[4]; PC-9 IC50 vs. H1373 IC50,14656 fold
same,IC50,[5],4690 nM
same,IC50,"[6]; Homo sapiens, MIA PaCa-2, 96 h, 3D culture, CellTiter-Glo 3D, read on day 4, read-out: MIA PaCa-2 (K-RAS G12C) IC50",0.44 nM
same,Selectivity (fold number of mutant vs. wild type),[6]; PC-9 IC50 vs. MIA PaCa-2 IC50,10659 fold
